Results reported in patent US20240246995A1, “PYRIMIDINONE DERIVATIVE AND PREPARATION METHOD THEREFOR, PHARMACEUTICAL COMPOSITION, AND USE” (SHANGHAI SIMR BIOTECHNOLOGY CO., LTD., priority 2021, published 2024).

Target: T1, Lipoprotein-Related Phospholipase A2 (Lp-PLA2) in Human Plasma (Homo sapiens, UniProt Q13093)
T1 construct: 40 μL of equally-divided and thawed mixed human plasma is pre-added; from tissue; host or cells: mixed (pooled) human plasma
T1 sequence (Q13093 22-441): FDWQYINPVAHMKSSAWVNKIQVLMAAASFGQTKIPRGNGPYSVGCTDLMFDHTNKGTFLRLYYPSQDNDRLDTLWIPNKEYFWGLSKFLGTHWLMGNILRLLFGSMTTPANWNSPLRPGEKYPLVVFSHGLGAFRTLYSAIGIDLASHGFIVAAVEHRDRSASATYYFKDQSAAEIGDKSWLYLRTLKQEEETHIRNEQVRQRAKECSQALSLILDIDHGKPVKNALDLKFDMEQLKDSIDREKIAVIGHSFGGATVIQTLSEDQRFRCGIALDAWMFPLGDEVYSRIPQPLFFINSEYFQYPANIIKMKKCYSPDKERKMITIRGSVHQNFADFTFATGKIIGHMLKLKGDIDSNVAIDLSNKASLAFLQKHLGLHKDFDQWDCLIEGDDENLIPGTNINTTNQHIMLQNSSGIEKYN
Assay: Determination of Lp-PLA2 in human plasma (Thio-PAF assay)
Type: biochemical
Details: mixed human plasma, 2-thio-PAF substrate, 30 minutes pre-incubation at room temperature
Text: Determination of Lipoprotein-Related Phospholipase A2 (Lp-PLA2) in Human Plasma.
Human plasma determination utilizes a thioester analogue of phosphatidylcholine (PAF), where hydrolysis leads to the formation of phospholipids containing free thiol groups. The amount of the thiol groups is continuously determined by reacting with CPM (7-diethylamino-3-(4′-maleimidophenyl)-4-methylcoumarin), which is maleimide with increased fluorescence after Michael addition of the thiol groups. This determination can detect the activity of Lp-PLA2 in human plasma, for example, determined by the specific inhibition of the Lp-PLA2 inhibitors.
Thio-PAF determination, as quenched 75 μL determination, is carried out. A compound source plate is prepared by preparing a 1:3 (volume) series of diluents of each compound in pure DMSO on a 96-well microplate. A Rainin multi-channel pipette is used to transfer 3 μL of a compound on the compound source plate into a 96-well microplate where 57 μL of a determination buffer is pre-added, and the compound on the source plate is diluted by 20 folds. The above determination buffer contains 50 mM HEPES (pH 7.4), 150 mM NaCl, and 1 mM CHAPS. A Rainin multi-channel pipette is used to transfer 1 μL of the compound subjected to 20-fold dilution into a 96-well Greiner 655076 (black) microplate where 40 μL of equally-divided and thawed mixed human plasma is pre-added. The plate is oscillated for 20 seconds in an Elisa plate oscillator to be mixed evenly. After 30 minutes of pre-incubation at the room temperature, a Rainin multi-channel pipette is used to add 10 μL of a substrate solution to a 96-well Greiner 655076 (black) microplate, and the substrate solution contains 2.5 mM 2-thio-PAF [from ethanol mother liquor], 32 μM CPM [from DMSO mother liquor] and 3.2 mM NEM (N-ethylmaleimide) [newly prepared in DMSO for each experiment] in a determination buffer composed of 50 mM HEPES (pH 7.4), 150 mM NaCl, and 1 mM CHAPS. After 2 minutes, 25 μL of a 5% trifluoroacetic acid (TFA) aqueous solution is used for quenching the reaction. The plate is centrifuged at 2000 rpm for 1 minute. A Biotek Synergy H1 (H1MF) Elisa reader is used to read the plate at ex:380/em:485. GraphPad Prism 6.0 and Excel are used for IC50 data, curve, and QC analysis.

IC50 [nM] | SMILES
24.2 | N#Cc1cc(COc2cc3n(c(=O)n2)CCC24CC(CN32)C4)ccc1F [Example 21]
120 | O=c1nc(OCCc2ccc(Oc3ccc(Cl)c(C(F)(F)F)c3)cc2)cc2n1CCC13CC(CN21)C3 [Example 22, 2-(4-(4-chloro-3-(trifluoromethyl)phenoxy)phenyl-ethoxy)-6,7,9,10-tetrahydro-4H,8H-7a,9-methano-pyrimido [1,6-a]pyrrolo[1,2-c] pyrimidine-4-one]
4.9 | O=c1nc(OCc2cc(F)c(Oc3ccnc(C(F)(F)F)c3)c(F)c2)cc2n1CC[C@@]13CO[C@@H](CN21)C3 [Example 23]
6.5 | N#Cc1cc(COc2cc3n(c(=O)n2)CC[C@@]24CO[C@@H](CN32)C4)ccc1Oc1cccc(C(F)(F)F)c1 [Example 25]
6.6 | O=c1nc(OCc2cc(F)c(Oc3ccnc(OC(F)(F)F)c3)c(F)c2)cc2n1CC[C@@]13CO[C@@H](CN21)C3 [Example 26]
4.6 | O=c1nc(OCc2cc(F)c(Oc3cnc(C(F)(F)F)nc3)c(F)c2)cc2n1CC[C@@]13CO[C@@H](CN21)C3 [Example 27]
13.3 | O=c1nc(OCCc2ccc(Oc3ccc(Cl)c(C(F)(F)F)c3)cc2)cc2n1CC[C@@]13CO[C@@H](CN21)C3 [Example 28, (7aR,10R)-2-(4-(4-chloro-3-(trifluoro-methyl)phenoxy)phenylethoxy)-6,7, 10,11-tetrahydro-4H,8H-7a,10-methanopyrimido [6′,1′:2,3] pyrimido[6,1-c] [1,4]oxazin-4-one]
54.1 | O=c1nc(OCc2cc(F)c(Oc3ccnc(C(F)(F)F)c3)c(F)c2)cc2n1CCC1CCCN21 (stereo not shown) [Example 29, 2-((3,5-difluoro-4-((2-(trifluoromethyl)pyrid-4-yl)oxy)benzyl)oxy)-6,7,7a,8,9,10-hexahy-dro-4H-pyrimidinyl [1,6-a]pyrrolo [1,2-c]pyrimidine-4-one]
97.1 | O=c1nc(OCc2cc(F)c(Oc3cnc(C(F)(F)F)nc3)c(F)c2)cc2n1CCC1CCCN21 (stereo not shown) [Example 31]
45.7 | N#Cc1cc(COc2cc3n(c(=O)n2)CCC2CCCN32)ccc1Oc1cccc(C(F)(F)F)c1 (stereo not shown) [Example 32]
24.7 | O=c1nc(OCc2cc(F)c(Oc3ccc(Cl)c(C(F)(F)F)c3)c(F)c2)cc2n1CCC1CCCN21 (stereo not shown) [Example 33, 2-((4-(4-chloro-3-(trifluoromethyl)phenoxy)-3,5-di-fluorobenzyl)oxy)-6,7,7a,8,9,10-hexahydro-4H-pyrimidinyl [1,6-a]pyrrolo [1,2-c]pyrimidine-4-one]
9.9 | CC12CCCN1c1cc(OCc3ccc(Oc4ccnc(C(F)(F)F)c4)c(F)c3)nc(=O)n1CC2 (stereo not shown) [Example 34, 2-((3-fluoro-4-((2-(trifluoromethyl)pyrid-4-yl)oxy)benzyl)oxy)-7a-methyl-6,7,7a,8,9,10-hexahydro-4H-pyri-midinyl[1,6-a] pyrrolo[1,2-c] pyrimidine-4-one]

Further lines, the compound ahead of its results:

SMILES | IC50 [nM]
O=c1nc(OCc2ccc(Oc3ccnc(C(F)(F)F)c3)c(F)c2)cc2n1CC[C@]13CO[C@H](CN21)C3 [Example 1, (7aS,10S)-2-((3-fluoro-4-((2-(trifluoromethyl)pyrid-4-yl)oxy)benzyl)oxy)-6,7,10,11-tetra hydro-4H,8H-7a,10-methanopyrimido[6′,1′:2,3]pyrimido[6,1-c][1,4]oxazin-4-one] | 5
O=c1nc(OCc2cc(F)c(Oc3ccnc(C(F)(F)F)c3)c(F)c2)cc2n1CC[C@]13CO[C@H](CN21)C3 [Example 3] | 7.7
Cc1cc(Oc2c(F)cc(COc3cc4n(c(=O)n3)CC[C@]35CO[C@H](CN43)C5)cc2F)ccn1 [Example 4] | 11.2
N#Cc1cc(COc2cc3n(c(=O)n2)CC[C@]24CO[C@H](CN32)C4)ccc1Oc1cccc(C(F)(F)F)c1 [Example 5] | 4.5
O=c1nc(OCc2cc(F)c(Oc3ccnc(Cl)c3)c(F)c2)cc2n1CC[C@]13CO[C@H](CN21)C3 [Example 6] | 5
O=c1nc(OCc2cc(F)c(Oc3ccnc(OC(F)(F)F)c3)c(F)c2)cc2n1CC[C@]13CO[C@H](CN21)C3 [Example 7] | 3.6
O=c1nc(OCc2ccc(Oc3ccnc(C(F)F)c3)c(F)c2)cc2n1CC[C@]13CO[C@H](CN21)C3 [Example 8] | 8.1
O=c1nc(OCc2cc(F)c(Oc3cnc(C(F)(F)F)nc3)c(F)c2)cc2n1CC[C@]13CO[C@H](CN21)C3 [Example 9] | 6.3
N#Cc1cc(COc2cc3n(c(=O)n2)CC[C@]24CO[C@H](CN32)C4)ccc1F [Example 10] | 10.8
O=c1nc(OCCc2ccc(Oc3ccc(Cl)c(C(F)(F)F)c3)cc2)cc2n1CC[C@]13CO[C@H](CN21)C3 [Example 11, (7aS, 10S)-2-(4-(4-chloro-3-(trifluoro-methyl)phenoxy)phenylethoxy)-6,7, 10,11-tetrahydro-4H,8H-7a,10-methanopyrimido [6′,1′:2,3]pyrimido [6,1-c][1,4]oxazin-4-one] | 8.9
O=c1nc(OCc2cc(F)c(Oc3ccnc(C(F)(F)F)c3)c(F)c2)cc2n1CCC13CC(CN21)C3 [Example 12, 2-((3,5-difluoro-4-((2-(trifluoromethyl)pyrid-4-yl)oxy)benzyl)oxy)-6,7,9,10-tetrahydro-4H, 8H-7a,9-methano-pyrimido[1,6-a] pyrrolo[1,2-c]pyri-midine-4-one] | 8.3
O=c1nc(OCc2ccc(Oc3ccnc(C(F)(F)F)c3)c(F)c2)cc2n1CCC13CC(CN21)C3 [Example 13, 2-((3-fluoro-4-((2-(trifluoromethyl)pyrid-4-yl)oxy)benzyl)oxy)-6,7,9,10-tetrahydro-4H,8H-7a,9-methanopyri-mido[1,6-a]pyrrolo [1,2-c]pyrimidine-4-one] | 8.3
O=c1nc(OCc2cc(F)c(Oc3ccc(Cl)c(C(F)(F)F)c3)c(F)c2)cc2n1CCC13CC(CN21)C3 [Example 14, 2-((4-(4-chloro-3-(trifluoromethyl)phenoxy)-3,5-di-fluorobenzyl)oxy)-6,7,9,10-tetrahydro-4H,8H-7a,9-methanopyrimido [1,6-a]pyrrolo[1,2-c] pyrimidine-4-one] | 8.8
Cc1cc(Oc2c(F)cc(COc3cc4n(c(=O)n3)CCC35CC(CN43)C5)cc2F)ccn1 [Example 15, 2-((3,5-difluoro-4-((2-methylpyrid-4-yl)oxy)benzyl)oxy)-6,7,9,10-tetra-hydro-4H,8H-7a,9-methanopyrimido [1,6-a]pyrrolo[1,2-c]pyrimidine-4-one] | 27.6
N#Cc1cc(COc2cc3n(c(=O)n2)CCC24CC(CN32)C4)ccc1Oc1cccc(C(F)(F)F)c1 [Example 16] | 9.2
O=c1nc(OCc2cc(F)c(Oc3ccnc(Cl)c3)c(F)c2)cc2n1CCC13CC(CN21)C3 [Example 17] | 21.5
O=c1nc(OCc2cc(F)c(Oc3ccnc(OC(F)(F)F)c3)c(F)c2)cc2n1CCC13CC(CN21)C3 [Example 18] | 11
O=c1nc(OCc2ccc(Oc3ccnc(C(F)F)c3)c(F)c2)cc2n1CCC13CC(CN21)C3 [Example 19] | 37
O=c1nc(OCc2cc(F)c(Oc3cnc(C(F)(F)F)nc3)c(F)c2)cc2n1CCC13CC(CN21)C3 [Example 20, 2-((3,5-difluoro-4-((2-(trifluoromethyl)pyrimidin-5-yl)oxy)benzyl)oxy)-6,7,9,10-tetrahydro-4H,8H-7a,9-methano-pyrimido[1,6-a] pyrrolo[1,2-c] pyrimidine-4-one] | 37.5
